Laboratory results published in PubChem BioAssay (NCI).
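Values below derive from 48-hour exposures of cells grown in 96-well plates, with endpoints linearly interpolated between the two concentrations bracketing the appropriate inhibition level. Here, GI50 denotes the concentration required for 50% inhibition of growth. TGI marks complete inhibition of growth.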

Assays:
Assay in all cases: DTP human tumour cell line panel, 48 h; in the data active means GI50 below about 0.43 µM; inactive means the rest
HOP-62 NSCLC = test system: HOP-62 NSCLC
MDA-MB-435 = test system: MDA-MB-435
HL-60(TB) leukemia = test system: HL-60(TB) leukemia
MDA-MB-231 breast = test system: MDA-MB-231 breast
SK-OV-3 ovarian = test system: SK-OV-3 ovarian
SN12C renal = test system: SN12C renal
KM12 colon = test system: KM12 colon
OVCAR-8 ovarian = test system: OVCAR-8 ovarian
MOLT-4 leukemia = test system: MOLT-4 leukemia
SNB-19 CNS = test system: SNB-19 CNS
HS 578T breast = test system: HS 578T breast
UACC-257 melanoma = test system: UACC-257 melanoma
SF-268 CNS = test system: SF-268 CNS
CAKI-1 renal = test system: CAKI-1 renal
NCI/ADR-RES ovarian = test system: NCI/ADR-RES ovarian
RPMI-8226 leukemia = test system: RPMI-8226 leukemia
LOX IMVI melanoma = test system: LOX IMVI melanoma
MCF7 breast = test system: MCF7 breast
SK-MEL-28 melanoma = test system: SK-MEL-28 melanoma
T-47D breast = test system: T-47D breast
OVCAR-3 ovarian = test system: OVCAR-3 ovarian
CCRF-CEM leukemia = test system: CCRF-CEM leukemia
OVCAR-4 ovarian = test system: OVCAR-4 ovarian
SK-MEL-2 melanoma = test system: SK-MEL-2 melanoma
TK-10 renal = test system: TK-10 renal
SNB-75 CNS = test system: SNB-75 CNS
SF-295 CNS = test system: SF-295 CNS
EKVX NSCLC = test system: EKVX NSCLC
NCI-H226 lung = test system: NCI-H226 lung
SR leukemia = test system: SR leukemia
MALME-3M melanoma = test system: MALME-3M melanoma
ACHN renal = test system: ACHN renal
U251 CNS = test system: U251 CNS
BT-549 breast = test system: BT-549 breast
K-562 leukemia = test system: K-562 leukemia
SW-620 colon = test system: SW-620 colon
NCI-H522 lung = test system: NCI-H522 lung
DU-145 prostate = test system: DU-145 prostate
UACC-62 melanoma = test system: UACC-62 melanoma
M14 melanoma = test system: M14 melanoma
NCI-H23 lung = test system: NCI-H23 lung
A498 renal = test system: A498 renal
HCT-15 colon = test system: HCT-15 colon
HOP-92 NSCLC = test system: HOP-92 NSCLC
PC-3 prostate = test system: PC-3 prostate
RXF 393 renal = test system: RXF 393 renal
SF-539 CNS = test system: SF-539 CNS
786-0 renal = test system: 786-0 renal
A549 NSCLC = test system: A549 NSCLC
COLO 205 colon = test system: COLO 205 colon
NCI-H460 lung = test system: NCI-H460 lung
OVCAR-5 ovarian = test system: OVCAR-5 ovarian
HCT-116 colon = test system: HCT-116 colon
HT29 colon = test system: HT29 colon
SK-MEL-5 melanoma = test system: SK-MEL-5 melanoma
HCC-2998 colon = test system: HCC-2998 colon
UO-31 renal = test system: UO-31 renal

NC(=O)c1cccnc1
inactive: GI50 (HOP-62 NSCLC) > 100 µM | GI50 (MDA-MB-435) > 100 µM | GI50 (HL-60(TB) leukemia) > 100 µM | GI50 (MDA-MB-231 breast) > 100 µM | GI50 (SK-OV-3 ovarian) > 100 µM | GI50 (SN12C renal) > 100 µM | GI50 (KM12 colon) > 100 µM | GI50 (OVCAR-8 ovarian) > 100 µM | GI50 (MOLT-4 leukemia) > 100 µM | GI50 (SNB-19 CNS) > 100 µM | GI50 (HS 578T breast) > 100 µM | GI50 (UACC-257 melanoma) > 100 µM | GI50 (SF-268 CNS) > 100 µM | GI50 (CAKI-1 renal) > 100 µM | GI50 (NCI/ADR-RES ovarian) > 100 µM | GI50 (RPMI-8226 leukemia) > 100 µM | GI50 (LOX IMVI melanoma) > 100 µM | GI50 (MCF7 breast) > 100 µM | GI50 (SK-MEL-28 melanoma) > 100 µM | GI50 (T-47D breast) > 100 µM | GI50 (OVCAR-3 ovarian) > 100 µM | GI50 (CCRF-CEM leukemia) 5.99 µM | GI50 (OVCAR-4 ovarian) > 100 µM | GI50 (SK-MEL-2 melanoma) > 100 µM | GI50 (TK-10 renal) > 100 µM | GI50 (SNB-75 CNS) > 100 µM | GI50 (SF-295 CNS) > 100 µM | GI50 (EKVX NSCLC) > 100 µM | GI50 (NCI-H226 lung) > 100 µM | GI50 (SR leukemia) 59.8 µM | GI50 (MALME-3M melanoma) > 100 µM | GI50 (ACHN renal) > 100 µM | GI50 (U251 CNS) > 100 µM | GI50 (BT-549 breast) > 100 µM | GI50 (K-562 leukemia) > 100 µM | GI50 (SW-620 colon) > 100 µM | GI50 (NCI-H522 lung) > 100 µM | GI50 (DU-145 prostate) > 100 µM | GI50 (UACC-62 melanoma) > 100 µM | GI50 (M14 melanoma) > 100 µM | GI50 (NCI-H23 lung) > 100 µM | GI50 (A498 renal) > 100 µM | GI50 (HCT-15 colon) > 100 µM | GI50 (HOP-92 NSCLC) > 100 µM | GI50 (PC-3 prostate) > 100 µM | GI50 (RXF 393 renal) > 100 µM | GI50 (SF-539 CNS) > 100 µM | GI50 (786-0 renal) > 100 µM | GI50 (A549 NSCLC) > 100 µM | GI50 (COLO 205 colon) > 100 µM | GI50 (NCI-H460 lung) > 100 µM | GI50 (OVCAR-5 ovarian) > 100 µM | GI50 (HCT-116 colon) > 100 µM | GI50 (HT29 colon) > 100 µM
> 100 µM: TGI (HOP-62 NSCLC) | TGI (MDA-MB-435) | TGI (HL-60(TB) leukemia) | TGI (MDA-MB-231 breast) | TGI (SK-OV-3 ovarian) | TGI (SN12C renal) | TGI (KM12 colon) | TGI (OVCAR-8 ovarian) | TGI (MOLT-4 leukemia) | TGI (SNB-19 CNS) | TGI (HS 578T breast) | TGI (UACC-257 melanoma) | TGI (SF-268 CNS) | TGI (CAKI-1 renal) | TGI (NCI/ADR-RES ovarian) | TGI (RPMI-8226 leukemia) | TGI (LOX IMVI melanoma) | TGI (MCF7 breast) | TGI (SK-MEL-28 melanoma) | TGI (T-47D breast) | TGI (OVCAR-3 ovarian) | TGI (CCRF-CEM leukemia) | TGI (OVCAR-4 ovarian) | TGI (SK-MEL-2 melanoma) | TGI (TK-10 renal) | TGI (SNB-75 CNS) | TGI (SF-295 CNS) | TGI (EKVX NSCLC) | TGI (NCI-H226 lung) | TGI (SR leukemia) | TGI (MALME-3M melanoma) | TGI (ACHN renal) | TGI (U251 CNS) | TGI (BT-549 breast) | TGI (K-562 leukemia) | TGI (SW-620 colon) | TGI (NCI-H522 lung) | TGI (DU-145 prostate) | TGI (UACC-62 melanoma) | TGI (M14 melanoma) | TGI (NCI-H23 lung) | TGI (A498 renal) | TGI (HCT-15 colon) | TGI (HOP-92 NSCLC) | TGI (PC-3 prostate) | TGI (RXF 393 renal) | TGI (SF-539 CNS) | TGI (786-0 renal) | TGI (A549 NSCLC) | TGI (COLO 205 colon) | TGI (NCI-H460 lung) | TGI (OVCAR-5 ovarian) | TGI (HCT-116 colon) | TGI (HT29 colon)

O=C(c1cccs1)c1nccc2c1cnc1ccccc12
21.2 µM: TGI (RXF 393 renal)
> 100 µM: TGI (HOP-62 NSCLC) | TGI (MDA-MB-435) | TGI (HL-60(TB) leukemia) | TGI (MDA-MB-231 breast) | TGI (SK-OV-3 ovarian) | TGI (SN12C renal) | TGI (KM12 colon) | TGI (OVCAR-8 ovarian) | TGI (MOLT-4 leukemia) | TGI (SNB-19 CNS) | TGI (HS 578T breast) | TGI (UACC-257 melanoma) | TGI (CAKI-1 renal) | TGI (NCI/ADR-RES ovarian) | TGI (RPMI-8226 leukemia) | TGI (LOX IMVI melanoma) | TGI (SK-MEL-28 melanoma) | TGI (T-47D breast) | TGI (OVCAR-3 ovarian) | TGI (SK-MEL-5 melanoma) | TGI (CCRF-CEM leukemia) | TGI (OVCAR-4 ovarian) | TGI (SK-MEL-2 melanoma) | TGI (TK-10 renal) | TGI (SNB-75 CNS) | TGI (SF-295 CNS) | TGI (EKVX NSCLC) | TGI (HCC-2998 colon) | TGI (NCI-H226 lung) | TGI (SR leukemia) | TGI (MALME-3M melanoma) | TGI (ACHN renal) | TGI (U251 CNS) | TGI (K-562 leukemia) | TGI (SW-620 colon) | TGI (DU-145 prostate) | TGI (UACC-62 melanoma) | TGI (M14 melanoma) | TGI (NCI-H23 lung) | TGI (UO-31 renal) | TGI (A498 renal) | TGI (HCT-15 colon) | TGI (HOP-92 NSCLC) | TGI (PC-3 prostate) | TGI (SF-539 CNS) | TGI (786-0 renal) | TGI (A549 NSCLC) | TGI (COLO 205 colon) | TGI (NCI-H460 lung) | TGI (OVCAR-5 ovarian) | TGI (HCT-116 colon) | TGI (HT29 colon)
98.6 µM: TGI (SF-268 CNS)
72.5 µM: TGI (MCF7 breast)

CCCCc1n(Cc2ccc3ccccc3c2)c2ccccc2[n+]1Cc1ccc2ccccc2c1
2.82 µM: TGI (ACHN renal)
2.23 µM: TGI (UACC-257 melanoma)
inactive: GI50 (UACC-257 melanoma) 0.925 µM | GI50 (ACHN renal) 1.4 µM | GI50 (OVCAR-5 ovarian) 0.521 µM
1.9 µM: TGI (OVCAR-5 ovarian)

O=c1[nH]nc(Cc2ccccc2)n1/N=C/c1ccco1
> 100 µM: TGI (HOP-62 NSCLC) | TGI (MDA-MB-435) | TGI (MDA-MB-231 breast) | TGI (SK-OV-3 ovarian) | TGI (SN12C renal) | TGI (KM12 colon) | TGI (OVCAR-8 ovarian) | TGI (MOLT-4 leukemia) | TGI (SNB-19 CNS) | TGI (HS 578T breast) | TGI (UACC-257 melanoma) | TGI (SF-268 CNS) | TGI (CAKI-1 renal) | TGI (NCI/ADR-RES ovarian) | TGI (RPMI-8226 leukemia) | TGI (LOX IMVI melanoma) | TGI (MCF7 breast) | TGI (SK-MEL-28 melanoma) | TGI (T-47D breast) | TGI (OVCAR-3 ovarian) | TGI (CCRF-CEM leukemia) | TGI (OVCAR-4 ovarian) | TGI (SK-MEL-2 melanoma) | TGI (SNB-75 CNS) | TGI (SF-295 CNS) | TGI (EKVX NSCLC) | TGI (HCC-2998 colon) | TGI (NCI-H226 lung) | TGI (MALME-3M melanoma) | TGI (ACHN renal) | TGI (U251 CNS) | TGI (BT-549 breast) | TGI (K-562 leukemia) | TGI (SW-620 colon) | TGI (DU-145 prostate) | TGI (UACC-62 melanoma) | TGI (M14 melanoma) | TGI (NCI-H23 lung) | TGI (UO-31 renal) | TGI (A498 renal) | TGI (HCT-15 colon) | TGI (PC-3 prostate) | TGI (RXF 393 renal) | TGI (SF-539 CNS) | TGI (786-0 renal) | TGI (A549 NSCLC) | TGI (COLO 205 colon) | TGI (NCI-H460 lung) | TGI (OVCAR-5 ovarian) | TGI (HCT-116 colon) | TGI (HT29 colon)
